Measurements as given in patent publication US10519177B2, “Heterocyclic compounds and uses thereof” (Plexxikon Inc., priority 2013, dated 2019).

Experiments:
BRD4-BD1 (44-164) = BRD4-BD1 (44-164) (Homo sapiens (Human), UniProt O60885); assay: Alphascreen binding assay BRD4-BD1; details: BRD4(1) H4; read-out: Biochemical activity (IC50 μM) BRD4(1) H4
Summary of the method: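 His-tagged E. coli-expressed BRD4 BD1 (44-164) or BD1-BD2 (1-477) incubated 1 h at room temperature with biotinylated tetra-acetylated histone H4 1-21 peptide and compound in HEPES pH 7.5, NaCl, BSA, Triton X-100, DTT buffer. Ni-chelate/streptavidin AlphaScreen beads (7.5 µg/ml) added, read after 30 min; pIC50 from four-parameter fit.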

BRD4-BD12 (1-477) = BRD4-BD12 (1-477) (Homo sapiens (Human), UniProt O60885); assay: Alphascreen binding assay BRD4-BD12; details: BRD4(1 2) H4; read-out: Biochemical activity (IC50 μM) BRD4(1 2) H4
Summary of the method: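 First, compound was preincubated 1 h at room temperature with the His-tagged BRD4 protein (BD1 44-164 or tandem BD12 1-477) and acetylated H4 peptide. Next, donor and acceptor beads were added at 7.5 μg/ml final. After 30 min, AlphaScreen emission was recorded.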

MV-4-11 cells = assay: Oncology cell growth assay MV-4-11 (CellTiter Glo); assay type: cell-based; details: Homo sapiens, MV4-11, 72 h; read-out: Cell activity (IC50 μM) MV-4-11 3d-Growth
Summary of the method: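 MV-4-11 AML cells (MLL-AF4), 3000 per well, exposed to 8-point 1:3 compound titration from 10 μM top concentration (0.2% DMSO) for 72 h. Viability by CellTiter Glo luminescence, normalized to DMSO controls; pIC50 from four-parameter curve fit.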

bromodomain = assay: at least one of the bromodomain cell assays of Example 57; assay type: cell-based; details: at least one of the bromodomain cell assays described in Example 57; read-out: IC50 in at least one of the bromodomain cell assays

| SMILES | IC50 (BRD4-BD1 (44-164)) | IC50 (BRD4-BD12 (1-477)) | IC50 (MV-4-11 cells) | IC50 (bromodomain) |
| --- | --- | --- | --- | --- |
| Cc1noc(C)c1-c1cnc2c(-c3cnn(Cc4ccccc4)c3)cn(CC3CCC(F)(F)CC3)c2c1 [P-0299, 4-[3-(1-benzylpyrazol-4-yl)-1-[(4,4-difluorocyclohexyl)methyl]pyrrolo[3,2-b]pyridin-6-yl]-3,5-dimethyl-isoxazole] | < 1 µM | < 1 µM | < 1 µM | < 10000 nM |
| Cc1noc(C)c1-c1cnc2c(-c3cnn(CC(F)(F)F)c3)cn(CC3(F)CCC(F)(F)CC3)c2c1 [P-0321, 3,5-dimethyl-4-(1-[(1,4,4-trifluorocyclohexyl)methyl]-3-[1-(2,2,2-trifluoroethyl)pyrazol-4-yl]pyrrolo[3,2-b]pyridin-6-yl]isoxazole] | < 1 µM | 1 to 10 µM | < 1 µM | < 10000 nM |
| Cc1noc(C)c1-c1cnc2c(-c3cnn(C4COC4)c3)cn(CC3CCC(F)(F)CC3)c2c1 [P-0295, 4-[1-[(4,4-difluorocyclohexyl)methyl]-3-[1-(oxetan-3-yl)pyrazol-4-yl]pyrrolo[3,2-b]pyridin-6-yl]-3,5-dimethyl-isoxazole] | < 1 µM | < 1 µM | < 1 µM | < 10000 nM |
| Cc1onc(N)c1-c1cnc2ccn(CC3CCC(F)(F)CC3)c2c1 [P-0329, 4-[1-[(4,4-difluorocyclohexyl)methyl]pyrrolo[3,2-b]pyridin-6-yl]-5-methyl-isoxazol-3-amine] | < 1 µM | < 1 µM | 1 to 10 µM | < 10000 nM |
| Cc1noc(C)c1-c1cnc2c(-c3ccc(C(=O)O)cc3)cn(CC3CCC(F)(F)CC3)c2c1 [P-0324, 4-[1-[(4,4-difluorocyclohexyl)methyl]-6-(3,5-dimethylisoxazol-4-yl)pyrrolo[3,2-b]pyridin-3-yl]benzoic acid] | < 1 µM | < 1 µM | < 1 µM | < 10000 nM |
| Cc1n[nH]c(C)c1-c1cnc2ccn(CC3CCC(F)(F)CC3)c2c1 [P-0285, l-[(4,4-difluorocyclohexyl)methyl]-6-(3,5-dimethyl-1H-pyrazol-4-yl)pyrrolo[3,2-b]pyridine] | 1 to 10 µM | 10 to 200 µM | 1 to 10 µM | < 10000 nM |
| COC(=O)c1ccc(-c2cn(CC3CCC(F)(F)CC3)c3cc(-c4c(C)noc4C)cnc23)cc1 [P-0330, methyl 4-[1-[(4,4-difluorocyclohexyl)methyl]-6-(3,5-dimethylisoxazol-4-yl)pyrrolo[3,2-b]pyridin-3-yl]benzoate] | < 1 µM | < 1 µM | < 1 µM | < 10000 nM |
| Cc1noc(C)c1-c1cnc2c(-c3cnn(C)c3)cn(C(CC#N)C3CC3)c2c1 (stereo not shown) [P-0316, 3-cyclopropyl-3-[6-(3,5-dimethylisoxazol-4-yl)-3-(1-methylpyrazol-4-yl)pyrrolo[3,2-b]pyridin-1-yl]propanenitrile] | < 1 µM | < 1 µM | < 1 µM | < 10000 nM |
| Cc1noc(C)c1-c1cnc2c(-c3ccc(C(=O)O)cc3)cn(C(C)c3ccccc3)c2c1 (stereo not shown) [P-0273, 4-[6-(3,5-dimethylisoxazol-4-yl)-1-(1-phenylethyl)pyrrolo[3,2-b]pyridin-3-yl]benzoic acid] | < 1 µM | < 1 µM | < 1 µM | < 10000 nM |
| Cc1noc(C)c1-c1cnc2c(-c3cnn(CC(C)C)c3)cn(CC3CCC(F)(F)CC3)c2c1 [P-0297, 4-[1-[(4,4-difluorocyclohexyl)methyl]-3-(1-isobutylpyrazol-4-yl)pyrrolo[3,2-b]pyridin-6-yl]-3,5-dimethyl-isoxazole] | < 1 µM | < 1 µM | < 1 µM | < 10000 nM |
| Cc1noc(C)c1-c1cnc2c(-c3cnn(C(F)F)c3)cn(CC3CC(F)(F)C3)c2c1 [P-0304] | < 1 µM | < 1 µM | < 1 µM | < 10000 nM |
| Cc1noc(C)c1-c1cnc2c(Cl)cn(CC3CCC(F)(F)CC3)c2c1 [P-0306, 4-[3-chloro-1-[(4,4-difIuorocyclohexyl)methyl]pyrrolo[3,2-b]pyridin-6-yl]-3,5-dimethyl-isoxazole] | < 1 µM | < 1 µM | < 1 µM | < 10000 nM |
| Cc1c(-c2cnc3ccn(CC4CCC(F)(F)CC4)c3c2)cnn1C [P-0293, l-[(4,4-difluorocyclohexyl)methyl]-6-(1,5-dimethylpyrazol-4-yl)pyrrolo[3,2-b]pyridine] | 10 to 200 µM | 10 to 200 µM | 10 to 200 µM | < 10000 nM |
| Cc1noc(C)c1-c1cnc2c(-c3cnc(C4CC4)nc3)cn(C(C)c3ccccc3)c2c1 (stereo not shown) [P-0278, 4-[3-(2-cyclopropylpyrimidin-5-yl)-1-(1-phenylethyl)pyrrolo[3,2-b]pyridin-6-yl]-3,5-dimethyl-isoxazole] | < 1 µM | < 1 µM | < 1 µM | < 10000 nM |
| Cc1noc(C)c1-c1cnc2c(-c3cnn(C)c3)cn(C(CC#N)c3ccccc3)c2c1 (stereo not shown) [P-0331, 3-[6-(3,5-dimethylisoxazol-4-yl)-3-(1-methylpyrazol-4-yl)pyrrolo[3,2-b]pyridin-1-yl]-3-phenyl-propanenitrile] | < 1 µM | < 1 µM | < 1 µM | < 10000 nM |
| Cc1noc(C)c1-c1cnc2c(-c3cnn(CC(F)(F)F)c3)c[nH]c2c1 [P-0265, 3,5-dimethyl-4-[3-[1-(2,2,2-trifluoroethyl)pyrazol-4-yl]-1H-pyrrolo[3,2-b]pyridin-6-yl]isoxazole] | < 1 µM | < 1 µM | < 1 µM | < 10000 nM |
| Cc1noc(C)c1-c1cnc2c(C#CCO)cn(CC3CCC(F)(F)CC3)c2c1 [P-0264, 3-[1-[(4,4-difluorocyclohexyl)methyl]-6-(3,5-dimethylisoxazol-4-yl)pyrrolo[3,2-b]pyridin-3-yl]prop-2-yn-1-ol] | < 1 µM | 1 to 10 µM | < 1 µM | < 10000 nM |
| Cc1noc(C)c1-c1cnc2c(-c3cnn(CC(F)(F)F)c3)cn(C(C)c3ccccn3)c2c1 (stereo not shown) [P-0320, 3,5-dimethyl-4-[1-[1-(2-pyridyl)ethyl]-3-[1-(2,2,2-trifluoroethyl)pyrazol-4-yl]pyrrolo[3,2-b]pyridin-6-yl]isoxazole] | < 1 µM | < 1 µM | < 1 µM | < 10000 nM |
| Cc1noc(C)c1-c1cnc2c(I)cn(Cc3ccccn3)c2c1 [P-0333, 4-[3-iodo-1-(2-pyridylmethyl)pyrrolo[3,2-b]pyridin-6-yl]-3,5-dimethyl-isoxazole] | < 1 µM | < 1 µM | < 1 µM | < 10000 nM |
